Experimental data from patent US12479816B2, “20-HETE formation inhibitors” (UNIVERSITY OF PITTSBURGH—OF THE COMMONWEALTH SYSTEM OF …, priority 2019, dated 2025).

How the values were obtained:
[1] = system: 20-HETE formation (CYP4) in RKM; experiment: Inhibition of 20-HETE formation at 250 or 500 nM in RKM microsomal incubations; type: biochemical, rat; conditions: RKM 300 μg/ml; for RKM % inh. @ 500 nM: 500 nM compound; for RKM % inh. @ 250 nM: 250 nM compound
Protocol: To screen the inhibitory effects against 20-HETE formation, compounds were screened in HLM, RLM, RKM and rCYP4F2 microsomal incubations. Compounds dissolved in either 100% methanol or 100% DMSO to yield 10 mM stock solution. Microsomal incubations containing HLM, RLM, RKM (300 μg/ml) or rCYP4F2 (25 pmol/mL), AA (100 μM), NADPH (1 mM) treated with test compounds at various concentrations (500 nM or 250 nM) in a 1 ml total volume in incubation buffer (0.12 M potassium phosphate buffer containing 5 mM magnesium chloride). Reaction was started by adding NADPH to the incubates and was carried out at 37° C. in a shaking water bath for 20 min. Reaction was stopped by placing tubes on ice, followed by adding 125 μl 20-HETE-d6 as internal standard to each sample. Microsomal incubations were extracted with 3 ml ethyl ether twice, dried down under nitrogen gas and reconstituted in 125 μl 80:20 methanol:deionized H2O for analysis. 20-HETE formation was quantified using a validated UPLC-MS/MS assay and normalized by vehicle group. Each compound had three replications (n=3). Vehicle group was used as control to calculate percentage of 20-HETE formation rate. HET0016 (250 nM) was used as positive control. Incubates without NADPH group served as the negative control. An Acquity ultra performance LC autosampler (Waters, Milford, MA) was used to isolate 20-HETE on an UPLC BEH C18, 1.7 μm (2.1×100 mm) reversed-phase column (Waters, Milford, MA) protected by a guard column (2.1×5 mm; Waters, Milford, MA) of the same packing material. Column temperature was maintained at 55° C. Mobile phases consisted of 0.005% acetic acid, 5% acetonitrile in deionized water (A) and 0.005% acetic acid in acetonitrile (B). The flow rate for mobile phases is 0.5 ml/min. The initial mixture of mobile phase was 65:35 of A and B. Mobile phase B increased at 0.4 minutes after injection from 35% to 70% in a linear gradient over 4 minutes, and again increased to 95% over 0.5 minutes where it remained for 0.3 minutes. This was followed by a linear return to initial conditions over 0.1 minutes with a 1.5 minute pre-equilibration period prior to the next sample run. Total run time was 6.4 minutes for each injection. Injection volumes were 7.5 μl. Mass spectrometric analysis was carried out using a TSQ Quantum Ultra (Thermo Fisher Scientific, San Jose, CA) triple quadrupole mass spectrometer using heated electrospray ionization (HESI). Mass spectrometer was operated in negative selective reaction monitoring (SRM) mode with unit resolutions at both Q1 and Q3 set at 0.70 Da full width at half maximum. Scan time was set at 0.01 s and collision gas pressure was 1.3 mTorr. Quantitation of 20-HETE by SRM was performed by monitoring the m/z. Analytical data was acquired and analyzed using Xcaliber 3.0 data system (ThermoFinnigan, San Jose, CA).

rCYP4F2 = target: T1, rCYP4F2 (Homo sapiens, UniProt P78329); experiment: Inhibition of 20-HETE formation at 250 or 500 nM in rCYP4F2 incubations; type: biochemical; conditions: rCYP4F2 25 pmol/mL; for inhibition at 0.5 µM: 500 nM compound, read-out: rCYP4F2 % inh. @ 500 nM; for inhibition at 0.25 µM: 250 nM compound, read-out: rCYP4F2 % inh. @ 250 nM
T1 sequence (P78329 5-520): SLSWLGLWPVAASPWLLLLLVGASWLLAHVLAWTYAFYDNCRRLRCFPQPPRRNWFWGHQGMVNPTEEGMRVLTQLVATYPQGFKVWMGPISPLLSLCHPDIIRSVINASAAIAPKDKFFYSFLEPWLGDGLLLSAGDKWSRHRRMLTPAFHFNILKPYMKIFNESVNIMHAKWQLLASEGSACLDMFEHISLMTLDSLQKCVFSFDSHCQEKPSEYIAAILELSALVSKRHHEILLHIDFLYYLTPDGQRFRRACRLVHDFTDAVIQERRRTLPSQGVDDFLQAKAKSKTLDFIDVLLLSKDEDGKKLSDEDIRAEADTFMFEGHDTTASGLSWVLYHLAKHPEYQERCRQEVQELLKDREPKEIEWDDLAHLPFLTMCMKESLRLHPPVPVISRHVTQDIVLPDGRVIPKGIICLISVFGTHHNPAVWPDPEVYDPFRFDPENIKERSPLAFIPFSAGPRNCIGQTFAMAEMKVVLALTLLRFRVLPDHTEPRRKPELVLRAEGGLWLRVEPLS
How it was run: (§1)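 Protein 300 μg/ml (microsomes) / 25 pmol/mL (rCYP4F2); AA 100 μM; NADPH 1 mM start; KPi 0.12 M + 5 mM MgCl2; 20 min, 37° C. Read-out: 20-HETE by UPLC-MS/MS (d6 IS), % of vehicle, n=3.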

[2] = system: 20-HETE formation (CYP4) in RLM; experiment: Inhibition of 20-HETE formation at 250 or 500 nM in RLM microsomal incubations; type: biochemical, rat; conditions: RLM 300 μg/ml; for RLM % inh. @ 500 nM: 500 nM compound; for RLM % inh. @ 250 nM: 250 nM compound
How it was run: as §1

[3] = system: 20-HETE formation (CYP4) in HLM; experiment: Inhibition of 20-HETE formation at 250 or 500 nM in HLM microsomal incubations; type: biochemical, human; conditions: HLM 300 μg/ml, AA 100 μM, 20 min; for HLM % inh. @ 500 nM: 500 nM compound; for HLM % inh. @ 250 nM: 250 nM compound
How it was run: as §1

Compound	RKM % inh. @ 500 nM [1] [%]	inhibition at 0.5 µM (rCYP4F2) [%]	RLM % inh. @ 500 nM [2] [%]	HLM % inh. @ 500 nM [3] [%]	RKM % inh. @ 250 nM [1] [%]	inhibition at 0.25 µM (rCYP4F2) [%]	RLM % inh. @ 250 nM [2] [%]	HLM % inh. @ 250 nM [3] [%]
c1cnc(C2CCN(c3ccn[nH]3)CC2)nc1 [Compound 9, 2-(1-(1H-Pyrazol-5-yl)piperidin-4-yl)pyrimidine]	0.00	0	0.00	0.00				
COC(=O)c1ccc(C2CCN(c3ccn[nH]3)CC2)cc1 [Compound 11, Methyl 4-(1-(1H-pyrazol-5-yl)piperidin-4-yl)benzoate]	1.60	66.5	3.60	0.00				
COc1cc(C2CCN(c3ccn[nH]3)CC2)ccn1 [Compound 16, 4-(1-(1H-Pyrazol-5-yl)piperidin-4-yl)-2-methoxypyridine]	0.00	28	29.00	27.00				
Fc1ccc(C2CCN(c3ccn[nH]3)CC2)cc1 [Compound 18, 4-(4-Fluorophenyl)-1-(1H-pyrazol-5-yl)piperidine]	0.00	70	41.00	66.00				
Cc1ccccc1C1CCN(c2ccn[nH]2)CC1 [Compound 35, 1-(1H-Pyrazol-5-yl)-4-(o-tolyl)piperidine]	4.00	20	0.00	20.00				
COc1ccc(C2CCN(c3ccn[nH]3)CC2)cc1F [Compound 43, 4-(3-Fluoro-4-methoxyphenyl)-1-(1H-pyrazol-5-yl)piperidine]	31.00	79	17.00	82.00				
COc1ccc(C2CCN(c3ccn[nH]3)CC2)c(F)c1 [Compound 46, 4-(2-Fluoro-4-methoxyphenyl)-1-(1H-pyrazol-5-yl)piperidine]	0.00	88	47.00	78.00				
Fc1cccc(C2CCN(c3ccn[nH]3)CC2)c1 [Compound 48, 4-(3-Fluorophenyl)-1-(1H-pyrazol-5-yl)piperidine]	8.00	63	0.00	67.00				
Fc1ccccc1C1CCN(c2ccn[nH]2)CC1 [Compound 50, 4-(2-Fluorophenyl)-1-(1H-pyrazol-5-yl)piperidine]	18.00	69	16.00	47.00				

Second part, the compound after the results:

RKM % inh. @ 500 nM [1] [%]	inhibition at 0.5 µM (rCYP4F2) [%]	RLM % inh. @ 500 nM [2] [%]	HLM % inh. @ 500 nM [3] [%]	RKM % inh. @ 250 nM [1] [%]	inhibition at 0.25 µM (rCYP4F2) [%]	RLM % inh. @ 250 nM [2] [%]	HLM % inh. @ 250 nM [3] [%]	Compound
0.00	2.6	0.00	24.50					c1ccc(N2CCN(c3cn[nH]c3)CC2)cc1 [Compound 5, 1-Phenyl-4-(1H-pyrazol-4-yl)piperazine]
1.20	6.1	0.00	31.80					COc1ccc(N2CCN(c3cn[nH]c3)CC2)cc1 [Compound 6, 1-(4-Methoxyphenyl)-4-(1H-pyrazol-4-yl)piperazine]
0.00	0	0.00	0.00					c1cnc(C2CCN(c3cn[nH]c3)CC2)nc1 [Compound 10, 2-(1-(1H-Pyrazol-4-yl)piperidin-4-yl)pyrimidine]
6.40	63.7	18.30	0.00					COC(=O)c1ccc(C2CCN(c3cn[nH]c3)CC2)cc1 [Compound 12, Methyl 4-(1-(1H-pyrazol-4-yl)piperidin-4-yl)benzoate]
27.00	1	3.00	29.00					CC(=O)N(C)c1ccc(C2CCN(c3cn[nH]c3)CC2)cn1 [Compound 13, N-(5-(1-(1H-Pyrazol-4-yl)piperidin-4-yl)pyridin-2-yl)-N-methylacetamide]
27.00	54	16.00	39.00					COc1cc(C2CCN(c3cn[nH]c3)CC2)ccn1 [Compound 15, 4-(1-(1H-Pyrazol-4-yl)piperidin-4-yl)-2-methoxypyridine]
25.00	83	57.00	80.00					Fc1ccc(C2CCN(c3cn[nH]c3)CC2)cc1 [Compound 17, 4-(4-Fluorophenyl)-1-(1H-pyrazol-4-yl)piperidine]
0.00	28	0.00	5.00					O=S(=O)(c1ccccc1)C1CCN(c2cn[nH]c2)CC1 [Compound 42, 4-(Phenylsulfonyl)-1-(1H-pyrazol-4-yl)piperidine]
0.00	73	24.00	71.00					COc1cccc(CC2CCN(c3cn[nH]c3)CC2)c1 [Compound 45, 4-(3-Methoxybenzyl)-1-(1H-pyrazol-4-yl)piperidine]
28.00	90	31.00	80.00					Fc1cccc(C2CCN(c3cn[nH]c3)CC2)c1 [Compound 49, 4-(3-Fluorophenyl)-1-(1H-pyrazol-4-yl)piperidine]
26.00	94	53.00	77.00					Fc1ccccc1C1CCN(c2cn[nH]c2)CC1 [Compound 51, 4-(2-Fluorophenyl)-1-(1H-pyrazol-4-yl)piperidine]
				8.20	3.9	4.30	14.90	c1ccc(N2CCN(c3ccn[nH]3)CC2)cc1 [Compound 53, 1-Phenyl-4-(1H-pyrazol-5-yl)piperazine]
				0.00	0	0.00	12.11	c1ccc(OC2CCN(c3ccn[nH]3)CC2)cc1 [Compound 55, 4-Phenoxy-1-(1H-pyrazol-5-yl)piperidine]
